Data set [1] relates to Cyclooxygenase 2/Cyclooxygenase 1. The following applies: cited from earlier work.
The test system of data set [2] is Carageenan - induced rat paw edema. Description: Carageenan-induced rat paw edema (anti-inflammatory activity). Type of data set: in vivo. The following applies: in words, compared to parent drug.
For data set [3] the following is noted: collected values of NSAIDs; cited from earlier work.
For data set [4] the following is noted: collected values of NSAIDs; cited from earlier work. This is another data set of the same source.
For data set [5] the following is noted: in words; pre-treatment; Navarro et al. 1994; cited from earlier work.
[6] abbreviates: IC50 (µg/ml) of COX2 divided by IC50 for COX1, values below 1 indicate selectivity for COX2, from Drugs of Today Vol. 32 Suppl. D 1996 p. 5.

Usually ED50 stands for the dose that gives a 50% effect, or the effect in half of the subjects. By LD50 is commonly meant the dose at which mortality reaches 50%.

Read-outs that look alike come from different tables or passages of the source.

As for `CC(=O)Nc1ccc(O)cc1` [Paracetamol], the “Cyclooxygenase 2/Cyclooxygenase 1 ratio” value in data set [1] (setting [6]) is reported as 7.4. `CC1=C(CC(=O)O)c2cc(F)ccc2/C1=C\c1ccc([S+](C)[O-])cc1` (stereo not drawn) [Sulindac]: the “Cyclooxygenase 2/Cyclooxygenase 1 ratio” value in data set [1] (setting [6]) is 100. Regarding `O=C([O-])Cc1ccccc1Nc1c(Cl)cccc1Cl.O=C([O-])Cc1ccccc1Nc1c(Cl)cccc1Cl.[Zn+2]` [Diclofenac-Zinc], the anti-inflammatory activity entry in data set [2] (listed as Diclofenac-Zinc complex) is “much more than the parent drug”; in data set [2] (listed as Zinc-diclofenac complex), “more potent anti-inflammatory activity than diclofenac”. On to `O=C(O)c1ccccc1Nc1cccc(C(F)(F)F)c1` [Flufenamic acid], for which the ED50 in data set [3] is 14.7 mg/kg. In data set [4], the LD50 is reported as 249 mg/kg and the “Therapeutic Index” value is listed as 17.

Take `COc1ccc2c(c1)c(CC(=O)O)c(C)n2C(=O)c1ccc(Cl)cc1` [Indomethacin]: the median effective dose (ED50) in data set [3] was 2.95 mg/kg. The 50% lethal dose (LD50) in data set [4] is 210 mg/kg.

In the case of `CS(=O)(=O)Nc1ccc([N+](=O)[O-])cc1Oc1ccccc1` [Nimesulide], the ED50 in data set [3] is on record as 1.25 mg/kg. With `CC(C(=O)O)c1ccc2c(c1)[nH]c1ccc(Cl)cc12` (stereo not drawn) [Carprofen], the “Cyclooxygenase 2/Cyclooxygenase 1 ratio” value in data set [1] is listed as 1.

Regarding `CC(=O)Oc1ccccc1C(=O)O` [Acetylsalicylic acid], the median effective dose (ED50) in data set [3] is recorded as 135.0 mg/kg. In data set [4], the LD50 is recorded as 1520 mg/kg and the “Therapeutic Index” value is 14. For the same molecule, the “Cyclooxygenase 2/Cyclooxygenase 1 ratio” value in data set [1] (setting [6]) is 166.

For the molecule `O=C([O-])c1ccccc1O.[Na+]` [Sodium salicylate], the “Cyclooxygenase 2/Cyclooxygenase 1 ratio” value in data set [1] (setting [6]) is listed as 2.8. In the case of `CC(C)Cc1ccc(C(C)C(=O)O)cc1` (stereo not drawn) [Ibuprofen], in data set [3], the ED50 is reported as 13.5 mg/kg. Besides, in data set [4], the LD50 is reported as 923 mg/kg. Take `COc1ccc2cc([C@H](C)C(=O)O)ccc2c1` [Naproxen, (+) -2-(6-Methoxy-2-haphthyl) propionic acid]: in data set [3], the ED50 was 2.10 mg/kg. As to `Cc1ccc(C(=O)c2ccc(CC(=O)O)n2C)cc1` [Tolmetin], the “Cyclooxygenase 2/Cyclooxygenase 1 ratio” value in data set [1] (setting [6]) is on record as 175. As for `Cc1c(Cl)cccc1Nc1ccccc1C(=O)O` [Tolfenamic acid], the “Cyclooxygenase 2/Cyclooxygenase 1 ratio” value in data set [1] (setting [6]) is 16.7.

On to `CN1C(C(=O)Nc2ccccn2)=C(O)c2ccccc2S1(=O)=O` [Piroxicam], for which, in data set [1], the “Cyclooxygenase 2/Cyclooxygenase 1 ratio” value is on record as 250.

Take `CC(C(=O)O)c1ccc(-c2ccccc2)c(F)c1` (stereo not drawn) [Flurbiprofen]: the “Cyclooxygenase 2/Cyclooxygenase 1 ratio” value in data set [1] was 1.3. Regarding `O=C(c1ccccc1)c1cccc(NS(=O)(=O)C(F)F)c1` [Diflumidone], the ED50 in data set [3] is reported as 38.0 mg/kg. Moreover, in data set [4], the LD50 is on record as 750 mg/kg and the “Therapeutic Index” value is 20. As to `CC(=O)NCCCCCC(=O)[O-].CC(=O)NCCCCCC(=O)[O-].[Zn+2]` [Zinc acexamate], in data set [5], the “overall Severity of lessions induced by NSAIDS” value was “significantly decreased”.

Source of the values: patent EP0987023A1, “Transition metal complexes of non steroidal anti-inflammatory drugs” (PANACEA BIOTEC LIMITED, priority 1998, dated 2000).
